Test results published in US7053095B2, “Triazole compounds as transforming growth factor (TGF) inhibitors” (Pfizer Inc., priority 2002, dated 2006).

Molecular target: T1, TβRI (ALK-5) (Homo sapiens, UniProt P36897)
T1 construct: with same assay conditions using either the kinase domain of ALK5 with Smad3 as substrate; GST
T1 sequence (P36897 205-495 limits assumed): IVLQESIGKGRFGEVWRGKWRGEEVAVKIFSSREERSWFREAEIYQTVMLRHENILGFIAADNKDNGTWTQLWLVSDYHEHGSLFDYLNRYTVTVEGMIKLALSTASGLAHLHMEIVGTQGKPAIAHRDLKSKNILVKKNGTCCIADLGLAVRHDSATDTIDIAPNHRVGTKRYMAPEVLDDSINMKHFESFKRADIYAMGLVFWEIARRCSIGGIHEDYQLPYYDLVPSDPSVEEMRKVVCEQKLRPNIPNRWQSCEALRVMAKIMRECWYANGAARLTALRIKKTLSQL
Assay: ALK-5 (TβRI) kinase assay
Type: biochemical
Procedure: ALK-5 (TβRI) Kinase Assay Protocol
The kinase assays were performed with 65 nM GST-ALK5 and 84 nM GST-Smad3 in 50 mM HEPES, 5 mM MgCl2, 1 mM CaCl2, 1 mM dithiothreitol, and 3_M ATP. Reactions were incubated with 0.5_Ci of [33 P]_ATP for 3 h at 30° C. Phosphorylated protein was captured on P-81 paper (Whatman, Maidstone, England), washed with 0.5% phosphoric acid, and counted by liquid scintillation. Alternatively, Smad3 or Smad1 protein was also coated onto FlashPlate Sterile Basic Microplates (PerkinElmer Life Sciences, Boston, Mass.). Kinase assays were then performed in Flash-Plates with same assay conditions using either the kinase domain of ALK5 with Smad3 as substrate or the kinase domain of ALK6 (BMP receptor) with Smad1 as substrate. Plates were washed three times with phosphate buffer and counted by TopCount (Packard Bio-science, Meriden, Conn.). (Laping, N.J. et al. Molecular Pharmacology 62:58–64 (2002)).

Q: With `Cc1cccc(-c2n[nH]nc2-c2ccc3nnc(C)n3c2)n1` [Example 2, 3-Methyl-6-[5-(6-methyl-pyridin-2-yl)-2H-[1,2,3]triazol-4-yl]-[1,2,4]triazolo[4,3-a]pyridine] as the compound, how does the IC50 read?
A: ~58 nM
